According to ChEMBL document CHEMBL6083255, “Synthesis and biological evaluation of novel isobenzofuran-1(3H)-one derivatives as antidepressant agents” (2024):
The source made the active and inactive calls. No cut-off for these calls is given here.

Legend:
RBL-2H3 [1] = assay: Cytotoxicity against Wistar rat RBL-2H3 cells assessed as cell viability at 1 uM incubated for 24 hrs by MTT assay; type: functional; settings: read-out: Activity
RBL-2H3 [2] = assay: Cytotoxicity against Wistar rat RBL-2H3 cells assessed as cell viability at 5 uM incubated for 24 hrs by MTT assay; type: functional; settings: read-out: Activity
RBL-2H3 [3] = assay: Cytotoxicity against Wistar rat RBL-2H3 cells assessed as cell viability at 25 uM incubated for 24 hrs by MTT assay; type: functional; settings: read-out: Activity
RBL-2H3 [4] = assay: Cytotoxicity against Wistar rat RBL-2H3 cells assessed as cell viability at 125 uM incubated for 24 hrs by MTT assay; type: functional; settings: read-out: Activity
[5] = target: Sodium-dependent serotonin transporter (Rattus norvegicus) (UniProt P31652); assay: Inhibition of SERT in Wistar rat RBL-2H3 cells assessed as decrease in fluorescence intensity at 10 uM preincubated for 2 hrs followed by APP+ addition and measured after 1 hr by fluorescence based assay; type: cell-based; settings: time 3.0 hrs
Sodium-dependent serotonin transporter (Rattus norvegicus), sequence (P31652 whole entry): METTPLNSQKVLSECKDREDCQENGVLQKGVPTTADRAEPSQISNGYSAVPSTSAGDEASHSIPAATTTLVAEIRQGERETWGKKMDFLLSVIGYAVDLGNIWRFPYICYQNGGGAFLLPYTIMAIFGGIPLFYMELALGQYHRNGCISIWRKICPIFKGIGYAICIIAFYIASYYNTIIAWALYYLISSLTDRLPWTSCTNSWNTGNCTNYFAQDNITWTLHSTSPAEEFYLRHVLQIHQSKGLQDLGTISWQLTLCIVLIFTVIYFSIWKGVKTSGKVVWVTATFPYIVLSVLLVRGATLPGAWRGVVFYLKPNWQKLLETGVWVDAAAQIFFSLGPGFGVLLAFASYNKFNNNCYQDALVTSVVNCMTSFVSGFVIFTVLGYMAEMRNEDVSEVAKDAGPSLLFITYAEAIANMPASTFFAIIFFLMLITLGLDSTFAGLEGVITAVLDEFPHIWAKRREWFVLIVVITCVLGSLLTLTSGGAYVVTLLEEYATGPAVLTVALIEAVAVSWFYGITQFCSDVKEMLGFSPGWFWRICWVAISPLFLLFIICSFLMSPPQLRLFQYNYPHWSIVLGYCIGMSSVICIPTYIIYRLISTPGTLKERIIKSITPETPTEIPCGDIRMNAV

CHO-K1 [6] = assay: Agonist activity at mu opioid receptor in CHO-K1 cells assessed as increase in intracellular fluorescence intensity at 50 uM incubated for 90 sec by microplate reader assay; type: cell-based; settings: Cricetulus griseus
CHO-K1 [7] = assay: Antagonist activity at mu opioid receptor in CHO-K1 cells assessed as intracellular fluorescence intensity at 50 uM incubated for 2 mins by microplate reader assay; type: cell-based; settings: Cricetulus griseus
CHO-K1 [8] = assay: Agonist activity at CCK-B receptor in CHO-K1 cells incubated for 90 sec by microplate reader assay; type: cell-based; settings: Cricetulus griseus
CHO-K1 [9] = assay: Antagonist activity at CCK-B receptor in CHO-K1 cells at 50 uM incubated for 90 sec by microplate reader assay; type: cell-based; settings: Cricetulus griseus
RBL-2H3 [10] = assay: Cytotoxicity against Wistar rat RBL-2H3 cells assessed as cell viability over 20 uM by MTT assay; type: functional, cell-based
RBL-2H3 [11] = assay: Induction of cell death in Wistar rat RBL-2H3 cells assessed as cell viability over 20 uM by MTT assay; type: functional, cell-based
CHO-K1 [12] = assay: Agonist activity at mu opioid receptor in CHO-K1 cells assessed as increase in intracellular fluorescence intensity at 30 uM incubated for 90 sec by microplate reader assay; type: cell-based; settings: Cricetulus griseus, filed as agonist
Mus musculus [13] = assay: Antidepressant activity in C57BL/6J mouse assessed as reduction in CRS induced body weight loss at 10 mg/kg, po administered as prophylactic dose and measured upto 28 days; type: functional, organism-based; settings: time <= 28.0 day
Mus musculus [14] = assay: Antidepressant activity in C57BL/6J mouse assessed as reduction in CRS induced body weight loss at 10 to 50 mg/kg, po pretreated with CRS for 14 days followed by compound addition on day 15 and measured upto 28 days; type: functional, organism-based; settings: dose 10-50 mg/kg, time <= 28.0 day
Mus musculus [15] = assay: Antidepressant activity in chronic restraint stress induced C57BL/6J mouse model assessed as increase the time in center zone at 10 mg/kg, po administered as prophylactic dose and measured on day 29 by open field test; type: functional, organism-based; settings: time 29.0 day
Mus musculus [16] = assay: Antidepressant activity in chronic restraint stress induced C57BL/6J mouse model assessed as increase the time in center zone at 10 to 50 mg/kg, po pretreated with CRS for 14 days followed by compound addition on day 15 and measured after 29 days by open field test; type: functional, organism-based; settings: dose 10-50 mg/kg, time 29.0 day
Mus musculus [17] = assay: Antidepressant activity in chronic restraint stress induced C57BL/6J mouse model assessed as increase in total distance in center zone at 10 mg/kg, po administered as prophylactic dose and measured on day 29 by open field test; type: functional, organism-based; settings: time 29.0 day
Mus musculus [18] = assay: Antidepressant activity in chronic restraint stress induced C57BL/6J mouse model assessed as increase in total distance in center zone at 10 to 50 mg/kg, po pretreated with CRS for 14 days followed by compound addition on day 15 and measured after 29 days by open field test; type: functional, organism-based; settings: dose 10-50 mg/kg, time 29.0 day
Mus musculus [19] = assay: Antidepressant activity in chronic restraint stress induced C57BL/6J mouse model assessed as increase in latency entries into center zone at 10 mg/kg, po administered as prophylactic dose and measured on day 29 by open field test; type: functional, organism-based; settings: time 29.0 day
Mus musculus [20] = assay: Antidepressant activity in chronic restraint stress induced C57BL/6J mouse model assessed as increase in latency entries into center zone at 10 to 50 mg/kg, po pretreated with CRS for 14 days followed by compound addition on day 15 and measured after 29 days by open field test; type: functional, organism-based; settings: dose 10-50 mg/kg, time 29.0 day
Mus musculus [21] = assay: Antidepressant activity in chronic restraint stress induced C57BL/6J mouse model assessed as reduction in immobility time at 10 mg/kg, po administered as prophylactic dose and measured on day 30 by force swimming test; type: functional, organism-based; settings: time 30.0 day
Mus musculus [22] = assay: Antidepressant activity in chronic restraint stress induced C57BL/6J mouse model assessed as reduction in immobility time at 10 to 50 mg/kg, po pretreated with CRS for 14 days followed by compound addition on day 15 and measured after 30 days by force swimming test; type: functional, organism-based; settings: dose 10-50 mg/kg, time 30.0 day
Mus musculus [23] = assay: Antidepressant activity in chronic restraint stress induced C57BL/6J mouse model assessed as increase in time in open arm at 10 mg/kg, po administered as prophylactic dose and measured on day 31 by elevated plus maze test; type: functional, organism-based; settings: time 31.0 day
Mus musculus [24] = assay: Antidepressant activity in chronic restraint stress induced C57BL/6J mouse model assessed as increase in time in open arm at 10 to 50 mg/kg, po pretreated with CRS for 14 days followed by compound addition on day 15 and measured after 31 days by elevated plus maze test; type: functional, organism-based; settings: dose 10-50 mg/kg, time 31.0 day
Mus musculus [25] = assay: Antidepressant activity in chronic restraint stress induced C57BL/6J mouse model assessed as increase in distance in open arm at 10 mg/kg, po administered as prophylactic dose and measured on day 31 by elevated plus maze test; type: functional, organism-based; settings: time 31.0 day
Mus musculus [26] = assay: Antidepressant activity in chronic restraint stress induced C57BL/6J mouse model assessed as increase in distance in open arm at 10 to 50 mg/kg, po pretreated with CRS for 14 days followed by compound addition on day 15 and measured after 31 days by elevated plus maze test; type: functional, organism-based; settings: dose 10-50 mg/kg, time 31.0 day
Mus musculus [27] = assay: Antidepressant activity in chronic restraint stress induced C57BL/6J mouse model assessed as increase in entries in open arm at 10 mg/kg, po administered as prophylactic dose and measured on day 31 by elevated plus maze test; type: functional, organism-based; settings: time 31.0 day
Mus musculus [28] = assay: Antidepressant activity in chronic restraint stress induced C57BL/6J mouse model assessed as increase in entries in open arm at 10 to 50 mg/kg, po pretreated with CRS for 14 days followed by compound addition on day 15 and measured after 31 days by elevated plus maze test; type: functional, organism-based; settings: dose 10-50 mg/kg, time 31.0 day
Mus musculus [29] = assay: Antidepressant activity in chronic restraint stress induced C57BL/6J mouse model assessed as increase in 5-HT level in prefrontal cortex at 10 mg/kg, po administered as prophylactic dose by ELISA; type: functional, organism-based
Mus musculus [30] = assay: Antidepressant activity in chronic restraint stress induced C57BL/6J mouse model assessed as increase in 5-HT level in prefrontal cortex at 10 to 50 mg/kg, po pretreated with CRS for 14 days followed by compound addition on day 15 by ELISA; type: functional, organism-based; settings: dose 10-50 mg/kg
Mus musculus [31] = assay: Antidepressant activity in chronic restraint stress induced C57BL/6J mouse model assessed as increase in hippocampus TPH2 protein expression at 10 mg/kg, po administered as prophylactic dose by Western blotting analysis; type: functional, organism-based
Mus musculus [32] = assay: Antidepressant activity in chronic restraint stress induced C57BL/6J mouse model assessed as rescue of normal neurons at 10 mg/kg, po administered as prophylactic dose by Nissl staining based optical microscopic assay; type: functional, organism-based
Mus musculus [33] = assay: Antidepressant activity in chronic restraint stress induced C57BL/6J mouse model assessed as rescue of normal neurons at 10 to 50 mg/kg, po pretreated with CRS for 14 days followed by compound addition on day 15 by Nissl staining based optical microscopic assay; type: functional, organism-based; settings: dose 10-50 mg/kg
Mus musculus [34] = assay: Antidepressant activity in chronic restraint stress induced C57BL/6J mouse model assessed as increase in Bcl2/Bax level at 10 mg/kg, po administered as prophylactic dose by Western blotting assay; type: functional, organism-based
Mus musculus [35] = assay: Antidepressant activity in chronic restraint stress induced C57BL/6J mouse model assessed as increase in spinophilin positive cells in cortex at 10 mg/kg, po administered as prophylactic dose by immunohistochemistry assay; type: functional, organism-based
Mus musculus [36] = assay: Antidepressant activity in chronic restraint stress induced C57BL/6J mouse model assessed as increase in spinophilin positive cells in cortex at 10 to 50 mg/kg, po pretreated with CRS for 14 days followed by compound addition on day 15 by immunohistochemistry assay; type: functional, organism-based; settings: dose 10-50 mg/kg
Mus musculus [37] = assay: Antidepressant activity in chronic restraint stress induced C57BL/6J mouse model assessed as increase in BDNF expression level at 10 mg/kg, po administered as prophylactic dose by Western blotting assay; type: functional, organism-based
Mus musculus [38] = assay: Antidepressant activity in chronic restraint stress induced C57BL/6J mouse model assessed as increase in TrkB expression level at 10 mg/kg, po administered as prophylactic dose by Western blotting assay; type: functional, organism-based
Mus musculus [39] = assay: Antidepressant activity in chronic restraint stress induced C57BL/6J mouse model assessed as increase in PSD-95 expression level at 10 mg/kg, po administered as prophylactic dose by Western blotting assay; type: functional, organism-based

## O=C1OC(CN2CCCCCC2)(c2ccccc2)c2ccccc21 (stereo not drawn)
RBL-2H3 [1]
  viability at 1 µM: 97.8%
RBL-2H3 [2]
  viability at 5 µM: 101%
RBL-2H3 [3]
  viability at 25 µM: 95.5%
RBL-2H3 [4]
  viability at 125 µM: 100%
[5]
  Activity: Active; Activity Stronger Than Fluoxetine
CHO-K1 [6]
  Activity: inactive
CHO-K1 [7]
  Activity: inactive
CHO-K1 [8]
  Activity: inactive
CHO-K1 [9]
  Activity: inactive

## CNCCC(Oc1ccc(C(F)(F)F)cc1)c1ccccc1 (stereo not drawn)
RBL-2H3 [10]
  Activity: Active
RBL-2H3 [11]
  Activity: Active
[5]
  Activity: Active

## C[C@@H](NC(=O)[C@@H](N)Cc1ccc(O)cc1)C(=O)NCC(=O)N(C)[C@@H](Cc1ccccc1)C(=O)NCCO
CHO-K1 [12]
  Activity: Active

## O=C1OC(CN2CCCCC2)(c2ccc(Cl)cc2)c2ccccc21 (stereo not drawn)
RBL-2H3 [1]
  viability at 1 µM: 97.5%
RBL-2H3 [2]
  viability at 5 µM: 98.1%
RBL-2H3 [3]
  viability at 25 µM: 107%
RBL-2H3 [4]
  viability at 125 µM: 125%
[5]
  Activity: Active; Activity Stronger Than Fluoxetine
CHO-K1 [6]
  Activity: inactive
CHO-K1 [7]
  Activity: inactive
CHO-K1 [8]
  Activity: inactive
CHO-K1 [9]
  Activity: inactive

## CCN(CC)CC1(c2ccc(Cl)cc2)OC(=O)c2ccccc21 (stereo not drawn)
RBL-2H3 [1]
  viability at 1 µM: 105%
RBL-2H3 [2]
  viability at 5 µM: 107%
RBL-2H3 [3]
  viability at 25 µM: 117%
RBL-2H3 [4]
  viability at 125 µM: 132%
[5]
  Activity: Active; Activity Stronger Than Fluoxetine
CHO-K1 [6]
  Activity: inactive
CHO-K1 [7]
  Activity: inactive
CHO-K1 [8]
  Activity: inactive
CHO-K1 [9]
  Activity: inactive
Mus musculus [13]
  Activity: Active
Mus musculus [14]
  Activity: Active
Mus musculus [15]
  Activity: Active
Mus musculus [16]
  Activity: Active
Mus musculus [17]
  Activity: Active
Mus musculus [18]
  Activity: Active
Mus musculus [19]
  Activity: Active
Mus musculus [20]
  Activity: Active
Mus musculus [21]
  Activity: Active
Mus musculus [22]
  Activity: Active
Mus musculus [23]
  Activity: Active
Mus musculus [24]
  Activity: Active
Mus musculus [25]
  Activity: Active
Mus musculus [26]
  Activity: Active
Mus musculus [27]
  Activity: Active
Mus musculus [28]
  Activity: Active
Mus musculus [29]
  Activity: Active
Mus musculus [30]
  Activity: Active
Mus musculus [31]
  Activity: Active
Mus musculus [32]
  Activity: Active
Mus musculus [33]
  Activity: Active
Mus musculus [34]
  Activity: Active
Mus musculus [35]
  Activity: Active
Mus musculus [36]
  Activity: Active
Mus musculus [37]
  Activity: Active
Mus musculus [38]
  Activity: Active
Mus musculus [39]
  Activity: Active
